Values of other authors, collected in patent EP4219603A1, “A METHOD FOR PURIFICATION OF ORGANIC WATER-SOLUBLE POLYMERS FROM HYDROPHOBIC CONTAMINANTS” (Ustav experimentálnej fyziky SAV, v.v.i., priority 2022, dated 2023).

Details: logarithm of the octanol/water partition coefficient; contaminants from Examples 1 to 9 identified in GC-MS HS-SPME elugrams

Row | Structure (SMILES) | log P
1 | CCCCC(CC)COC(=O)c1ccccc1 (stereo not drawn) [2-ethylhexyl benzoate] | 5.73
2 | CCCCCCCCCCCC(C)=O [2-tridecanone] | 5.16
3 | c1ccc(-c2ccccc2)cc1 [bifenyl] | 4.00
4 | CC(C)c1ccc2c(c1)CC[C@H]1[C@](C)(CO)CCC[C@]21C [dehydroabietol] | 6.35
5 | CC(C)COC(=O)c1ccccc1C(=O)OCC(C)C [di-isobutyl phtalate] | 4.46
6 | Clc1cc(Cl)cc(-c2ccccc2)c1 [dichlorobiphenyl (PCB 14)] | 5.41
7 | CCCCCCCCCCCC [dodecane] | 7.13
8 | C[C@]12CC[C@H]3C(=CCc4cc(OC(=O)c5ccccc5)ccc43)[C@@H]1CCC2=O [equilin benzoate] | 5.63
9 | CCCCCCCCCCCC(=O)OCC [ethyl dodecanoate] | 6.00
10 | CCCCCCCCCCCCCCCC [hexadecane] | 9.26
11 | CCCCCCCCCCCC(=O)OC(C)C [isopropyl dodecanoate] | 6.37
12 | CCCCCCCCCCCCCC(=O)OC(C)C [isopropyl tetradecanoate] | 7.43
13 | CCCCCCCCCCCCCCCCCC [octadecane] | 10.32
14 | CCCCCCCCCCCCCC [tetradecane] | 8.19
15 | CCCCCCCCCCCCC [tridecane] | 7.66

Same assay, conditions: logarithm of the octanol/water partition coefficient; model contaminants added to the polymer

Row | Structure (SMILES) | log P
16 | Clc1cc(Cl)cc(-c2ccccc2)c1 [dichlorobiphenyl (PCB 14)] | 5.41
17 | CCCCCCCCCCCC(=O)OCC [ethyl dodecanoate] | 6.00
18 | CCCCCCCCCCCCCCCCCC [octadecane] | 10.32
